Assay results taken from patent US20100204340A1 (priority 2009, published 2010).

Experiments:
[1] = test system: adipocyte differentiation; settings: prior art, Biochem Biophys Res Commun 372 (2008) 108-113; cited from earlier work
[2] = Pharmacokinetics in serum and urine upon oral administration; type: in vivo, rats; settings: rats, oral, 100 mg/kg body weight
Procedure: The compound in its free and conjugated form is freely absorbed into systemic circulation with the glucoronide detected up to 72 hours.
(FIG. 4). The compound in its free and conjugated form appears in systemic circulation within 15 minutes of administration.

SIRT1 polypeptide = target: T1, SIRT1 polypeptide (Homo sapiens, UniProt Q96EB6); test: SIRT 1 Direct fluorescent Screening Assay kit (Cayman); type: biochemical; settings: read-out: Percentage SIRT 1 modulation; for activation at 1 µg/mL: 1 μg/ml; for activation at 10 µg/mL: 10 μg/ml; for activation at 50 µg/mL: 50 μg/ml; for activation at 100 µg/mL: 100 μg/ml; for activation at 250 µg/mL: 250 μg/ml
T1 construct: purchased Cayman Chemical Company 10010401
T1 sequence (Q96EB6 1-747): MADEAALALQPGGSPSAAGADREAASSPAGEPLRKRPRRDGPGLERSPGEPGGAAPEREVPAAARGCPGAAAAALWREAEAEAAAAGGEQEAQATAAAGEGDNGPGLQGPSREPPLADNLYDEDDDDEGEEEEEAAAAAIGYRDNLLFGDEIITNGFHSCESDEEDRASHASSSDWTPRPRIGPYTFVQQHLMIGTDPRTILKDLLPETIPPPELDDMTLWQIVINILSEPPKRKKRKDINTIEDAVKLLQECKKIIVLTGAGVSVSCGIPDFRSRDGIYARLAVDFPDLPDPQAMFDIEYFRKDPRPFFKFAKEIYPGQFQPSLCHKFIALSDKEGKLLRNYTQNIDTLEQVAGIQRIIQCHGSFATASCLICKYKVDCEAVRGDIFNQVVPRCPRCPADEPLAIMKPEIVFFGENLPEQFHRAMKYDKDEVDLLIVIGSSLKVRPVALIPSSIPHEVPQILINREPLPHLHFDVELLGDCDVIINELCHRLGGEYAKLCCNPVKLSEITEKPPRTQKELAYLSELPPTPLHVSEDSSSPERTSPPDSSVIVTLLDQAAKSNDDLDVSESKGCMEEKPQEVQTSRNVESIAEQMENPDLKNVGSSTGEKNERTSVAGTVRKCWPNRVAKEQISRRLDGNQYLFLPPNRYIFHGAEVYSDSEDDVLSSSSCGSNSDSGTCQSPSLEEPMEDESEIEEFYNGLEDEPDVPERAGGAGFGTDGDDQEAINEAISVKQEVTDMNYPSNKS
Procedure: SIRT-1 activation/inhibition was measured using the SIRT 1 Direct fluorescent Screening Assay kit (Catalog No. 10010401) and instructions provided therein of Cayman Chemical Company, 1180 East Ellsworth Road, Ann Arbor, Mich. 48108 USA. (http://www.caymanchem.com/pdfs/10010401.pdf)

3T3-L1 cells = settings: cited from earlier work

In the case of `COc1c(O)cc(C=Cc2ccccc2)cc1O` [3,5-dihydroxy-4-methoxystilbene], the “Effect on adipocyte differentiation / adipogenesis” value [1] is listed as “no effect on adipogenesis”.

In the case of `CC(=O)O.Cc1c(O)cc(C=Cc2ccccc2)cc1O` [3,5-dihydroxy-4-methylstilbene acetate], the “Effect on adipocyte differentiation / adipogenesis” value [1] is given as “no effect on adipogenesis”.

In the case of `COc1ccc(C=Cc2cc(O)cc(O)c2)cc1` [3,5-dihydroxy-40-methoxystilbene], the “Effect on adipocyte differentiation / adipogenesis” value [1] is given as “no effect on adipogenesis”.

For `Oc1cc(O)cc(/C=C/c2c(O)cccc2O)c1` [Gnetol, 2,3′,5′,6-tetrahydroxy-trans-stilbene], the “Oral bioavailability (free form and glucoronide)” value ([2]; serum) was “orally bioavailable” and the Urinary excretion form ([2]; urine) was “excreted predominantly as glucoronides in the urine”.

Compound `Oc1cc(O)cc(/C=C/c2ccc(O)cc2O)c1` [Oxyresveratrol, trans-2,3′,4,5′-tetrahydroxystilbene] has an activation at 1 µg/mL (SIRT1 polypeptide) of 77.8%, an activation at 10 µg/mL (SIRT1 polypeptide) of 24.4% and an activation at 50 µg/mL (SIRT1 polypeptide) of 60%. It also gave an activation at 100 µg/mL (SIRT1 polypeptide) of 202% and an activation at 250 µg/mL (SIRT1 polypeptide) of 298%.

`COc1cc(C=Cc2ccc(O)cc2)cc(OC)c1` [Pterostilbene, 3,5-dimethoxy-4′-hydroxystilbene] gave an activation at 1 µg/mL (SIRT1 polypeptide) of 2.22%, an activation at 10 µg/mL (SIRT1 polypeptide) of 11.1% and an activation at 50 µg/mL (SIRT1 polypeptide) of 53.3%. The activation at 100 µg/mL (SIRT1 polypeptide) was 113%, the activation at 250 µg/mL (SIRT1 polypeptide) was 231% and the IC50 (3T3-L1 cells; approximate conversion of 23.9 μg/ml, read-out: Reported IC50 (adipogenesis), converted) was ~96 µM. For the same compound, the “Reported IC50 (adipogenesis)” value (3T3-L1 cells; reported, Remsberg et al., 3T3-L1) was 23.9 µg/mL.

`CC(NC(=O)c1ccccc1/N=C/c1c(O)ccc2ccccc12)c1ccccc1` (stereo not shown) [Sirtinol, 2-[(2-Hydroxynaphthalen-1-ylmethylene)amino]-N-(1-phenyl-ethyl)•benzamide] showed an activation at 1 µg/mL (SIRT1 polypeptide) of 64.4%.

For `Oc1ccc([C@H]2c3c(O)cc(O)cc3[C@H]3c4c(cc(O)cc4[C@@H]2c2cc(/C=C/c4cc(O)cc5c4[C@H](c4cc(O)cc(O)c4)[C@@H](c4ccc(O)cc4)O5)ccc2O)O[C@@H]3c2ccc(O)cc2)cc1` [Vitisin A], the “Effect on adipocyte differentiation / adipogenesis” value [1] is listed as “inhibited adipocyte differentiation most effectively”.

In the case of `Oc1ccc(/C=C/c2cc(O)cc3c2[C@@H](c2cc(O)cc(O)c2)[C@H](c2ccc(O)cc2)O3)cc1` [e-viniferin], the “Effect on adipocyte differentiation / adipogenesis” value [1] is listed as “no effect on adipogenesis”.

For `CC(=O)Oc1ccc(C=Cc2cc(OC(C)=O)cc(OC(C)=O)c2)cc1` [resveratrol triacetate], the “Effect on adipocyte differentiation / adipogenesis” value [1] is listed as “no effect on adipogenesis”.

For `OC[C@H]1O[C@@H](Oc2cc(O)cc(/C=C/c3ccc(O)cc3)c2)[C@H](O)[C@@H](O)[C@@H]1O` [resveratrol-3-O-B-D-glucoside], the “Effect on adipocyte differentiation / adipogenesis” value [1] is given as “no effect on adipogenesis”.

In the case of `CC(=O)OCC1OC(Oc2cc(C=Cc3ccc(OC(C)=O)cc3)cc(OC(C)=O)c2)C(OC(C)=O)C(OC(C)=O)C1OC(C)=O` (stereo not shown) [resveratrol-3-O-Glu hexaacetate], the “Effect on adipocyte differentiation / adipogenesis” value [1] is listed as “no effect on adipogenesis”.

For `COc1ccc(C=Cc2cc(OC(C)=O)cc(OC3OC(COC(C)=O)C(OC(C)=O)C(OC(C)=O)C3OC(C)=O)c2)cc1OC(C)=O` (stereo not shown) [rhaponticin hexaacetate], the “Effect on adipocyte differentiation / adipogenesis” value [1] is listed as “no effect on adipogenesis”.

For `COc1ccc(/C=C/c2cc(O)cc(O[C@@H]3O[C@H](CO)[C@@H](O)[C@H](O)[C@H]3O)c2)cc1O` [rhaponticin], the “Effect on adipocyte differentiation / adipogenesis” value [1] is given as “no effect on adipogenesis”.
